Where “and” joins values, the source holds several entries; their conditions need not be identical. Equal entries are not always repeated.
Tested on: ER-α
Test: In vitro ER-α inhibitory ELISA assay in MCF-7 cells
Type: cell-based, human
Conditions: 1 μg/mL, 24 h
Procedure: An in vitro ER-α inhibitory ELISA assay was performed using a Human ER-α/Estrogen Receptor ELISA Kit (Sandwich ELISA) (Lifespan Biosciences, Seattle, Washington, USA) as previously described.[64] The cells were plated at a density of 2000 cells/well in a 96-well plate. […] After 24 h, the pellets of the cells were collected by centrifugation. The cells were washed three times with PBS and then lysed by ultrasonication, and the supernatant was collected for testing. The wells were loaded with 100 μL of either standards or samples and incubated for 90 min at 37 °C. The wells were washed with 1× wash buffer for removing any unbound sample and 100 μL 1× biotinylated detection antibody was next put in and incubated for 1 h at 37 °C. The wells were rewashed with 1× wash buffer, and 100 μL 1× HRP conjugate was then added and incubated for 30 min at 37 °C. A third wash with 1× wash buffer was done and 90 μL of the TMB substrate was added. The TMB substrate reacted with the HRP enzyme, ensuring a color development, and the reaction was terminated using 50 μL of a stop solution. Finally, the optical density (OD) of the well was measured at a wavelength of 450 nm ± 2 nm. The OD of an unknown sample was calculated by correlation with a standard curve generated by standards with known concentrations.

COc1cc(C=C2C(=O)Nc3ccc(Cl)cc32)ccc1OCc1ccccn1 (mixture of isomers) [6j] was tested, and the “ER-α pg/mL (mean ± SEM)” value was 424.9 ± 17.2 pg/mL and the “inhibition (%) of ER-α” value (compared to control) was 62% and 62.4%.
